Target: T1, human capsaicin receptor (Homo sapiens, UniProt Q8NER1)
T1 construct: transfected with the pBK-CMV expression construct encoding the full length human capsaicin receptor; expressed in transfected cells
Assay: Calcium mobilization assay (antagonist and agonist activity)
Assay type: cell-based
Details: capsaicin as positive control in agonist assay; read-out: approximate EC90 concentration
Description: This Example illustrates representative calcium mobilization assays for use in evaluating test compounds for agonist and antagonist activity.
The culture medium is emptied from the 96 well plates and FLUO-3 AM calcium sensitive dye (Molecular Probes, Eugene, Oreg.) is added to each well (dye solution: 1 mg FLUO-3 AM, 440 μL DMSO and 440 μl 20% pluronic acid in DMSO, diluted 1:250 in Krebs-Ringer HEPES (KRH) buffer (25 mM HEPES, 5 mM KCl, 0.96 mM NaH2PO4, 1 mM MgSO4, 2 mM CaCl2, 5 mM glucose, 1 mM probenecid, pH 7.4), 50 μl diluted solution per well). Plates are covered with aluminum foil and incubated at 37° C. for 1-2 hours in an environment containing 5% CO2. […]
To measure the ability of a test compound to agonize or antagonize a calcium mobilization response in cells expressing capsaicin receptors to capsaicin or other vanilloid agonist, the EC50 of the agonist capsaicin is first determined. […] Capsaicin-induced calcium mobilization is monitored using either FLUOROSKAN ASCENT (Labsystems; Franklin, Mass.) or FLIPR (fluorometric imaging plate reader system; Molecular Devices, Sunnyvale, Calif.) instruments. […]
In this equation, y is the maximum fluorescence signal, x is the concentration of the agonist or antagonist (in this case, capsaicin), a is the Emax, b corresponds to the EC50 value and c is the Hill coefficient. […]

T1 sequence (Q8NER1 whole entry): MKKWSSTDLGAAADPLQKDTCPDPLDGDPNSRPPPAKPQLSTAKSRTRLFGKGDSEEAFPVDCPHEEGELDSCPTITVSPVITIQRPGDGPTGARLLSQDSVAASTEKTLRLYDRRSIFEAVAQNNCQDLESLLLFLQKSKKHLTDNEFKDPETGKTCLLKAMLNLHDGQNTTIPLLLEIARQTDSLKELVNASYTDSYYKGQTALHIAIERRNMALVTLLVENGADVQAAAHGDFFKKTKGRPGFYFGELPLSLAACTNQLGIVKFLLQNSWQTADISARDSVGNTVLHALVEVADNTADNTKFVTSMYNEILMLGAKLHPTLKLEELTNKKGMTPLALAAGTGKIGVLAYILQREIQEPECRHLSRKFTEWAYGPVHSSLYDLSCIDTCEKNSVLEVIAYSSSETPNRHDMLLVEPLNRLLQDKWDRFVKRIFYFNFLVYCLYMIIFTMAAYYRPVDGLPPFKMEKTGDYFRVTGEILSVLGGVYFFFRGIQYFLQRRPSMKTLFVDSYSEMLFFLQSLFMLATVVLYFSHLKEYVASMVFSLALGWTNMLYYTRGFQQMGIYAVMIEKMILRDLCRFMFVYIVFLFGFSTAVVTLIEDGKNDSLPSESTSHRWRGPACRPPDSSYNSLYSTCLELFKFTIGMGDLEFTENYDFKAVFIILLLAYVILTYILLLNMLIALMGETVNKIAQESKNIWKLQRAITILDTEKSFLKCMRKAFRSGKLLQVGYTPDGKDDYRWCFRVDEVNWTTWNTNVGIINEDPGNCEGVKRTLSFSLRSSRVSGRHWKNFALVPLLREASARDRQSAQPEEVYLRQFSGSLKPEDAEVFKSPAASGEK

`COc1cc(CNC(=O)CCCC/C=C/C(C)C)ccc1O` [capsaicin] showed an EC90 of about 100 nM.
